From patent publication US8455497B2, “Inhibitors of aspartyl protease” (Vertex Pharmaceuticals Incorporated, priority 1999, dated 2013) come the findings set out here.

The subject of assay [1] is EP13 multi protease inhibitor resistant virus. Kind of assay: Anti-viral activity against resistant virus EP13 in MT4 cells. The assay is classed as cell-based, HIV-1. The gist of the method:
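MT4 cells infected for 1 h at 37 °C, MOI 100×TCID50, then diluted 6-fold onto pre-diluted compound and cultured 5 days (5% CO2). Viable-cell DNA content estimated by propidium iodide. EP13 carries protease mutations M46I, L63P, A71V, V82F/L, I84V, no RT mutations.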

Assay [2] deals with HIV-1 (strain IIIB). Kind of assay: Antiviral activity assay in MT4 cells (propidium iodide based). The assay is classed as cell-based. The settings on record: wild type HIV-1 virus, MT4 cells, read-out: Wildtype virus - IC50. The gist of the method:
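Compound serial dilutions in RPMI/FCS received MT4 cells pre-infected 1 hr at 37°C with HIV-1 IIIB at 100×TCID50. After 5 days' culture and Nonidet-40 lysis, well DNA content was measured by propidium iodide dye; mock-infected cells served as control.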

Assay [3] has as its system D545701-14 multi protease inhibitor resistant virus. The assay can be described thus: Anti-viral activity against resistant virus D545701-14 in MT4 cells. The assay is classed as cell-based, HIV-1.
Setting [4] is: Human immunodeficiency virus 1, MT4, read-out: EP13 mutant IC50, EP13 multi protease inhibitor resistant virus, MT4 cells.
[5] abbreviates: Human immunodeficiency virus 1, IIIB.
Setting [6] is: Human immunodeficiency virus 1, MT4, read-out: D545701-14 mutant - IC50, D545701-14 multi protease inhibitor resistant virus, MT4 cells.
[7] abbreviates: EP13 multi protease inhibitor resistant virus, MT4 cells, read-out: EP13 mutant IC50.
The mark [8] stands for this setting: D545701-14 multi protease inhibitor resistant virus, MT4 cells, read-out: D545701-14 mutant - IC50.

As usually defined, the IC50 is the concentration needed to halve the response being measured.

Like-named read-outs stand apart in the source and are kept apart here. Bounds are passed on as bounds.

Take `CC(C)CN(C[C@@H](O)[C@H](Cc1ccc(OCCCN(C)C)cc1)NC(=O)O[C@H]1CO[C@H]2OCC[C@H]21)S(=O)(=O)c1ccc2c(c1)OCO2` [Compound 274, (3R,3aS,6aR)-hexahydrofuro[2,3-b]furan-3-yl (1S,2R)-3-[(1,3-benzodioxol-5-ylsulfonyl)(isobutyl)amino]-1-{4-[3-(dimethylamino)propoxy]benzyl}-2-hydroxypropylcarbamate]: the IC50 in assay [1] (setting [4]) is 1 to 10 nM; in assay [2] (setting [5]), 10 to 100 nM; in assay [3] (setting [6]), 10 to 100 nM.
In the case of `CC(C)CN(C[C@@H](O)[C@H](Cc1ccc(OCCCCNC(=O)OC(C)(C)C)cc1)NC(=O)O[C@H]1CO[C@H]2OCC[C@H]21)S(=O)(=O)c1ccc2c(c1)OCO2` [Compound 223, (3R,3aS,6aR)-hexahydrofuro[2,3-b]furan-3-yl (1S,2R)-3-(1,3-benzodioxol-5-ylsulfonyl)(isobutyl)amino-1-(4-{4-[(tert-butoxycarbonyl)amino]butoxy}benzyl)-2-hydroxypropylcarbamate], the IC50 in assay [1] (setting [4]), in assay [2] (setting [5]) and in assay [3] (setting [6]) was 1 to 10 nM each time.
For the molecule `CC(C)CN(C[C@@H](O)[C@H](Cc1ccc(OCc2csc3ccccc23)cc1)NC(=O)O[C@H]1CO[C@H]2OCC[C@H]21)S(=O)(=O)c1ccc2c(c1)OCO2` [Compound 387, (3R,3aS,6aR)-hexahydrofuro[2,3-b]furan-3-yl (1S,2R)-3-[(1,3-benzodioxol-5-ylsulfonyl)(isobutyl)amino]-1-[4-(1-benzothien-3-ylmethoxy)benzyl]-2-hydroxypropylcarbamate], the 50% inhibitory concentration (IC50) in assay [1] (setting [4]), in assay [2] (setting [5]) and in assay [3] (setting [6]) was 1 to 10 nM each time.
As to `CNC(=O)OCCCC(C)(C)CN(C[C@@H](O)[C@H](Cc1ccc(OCc2ccccc2)cc1)NC(=O)OC1CO[C@H]2OCC[C@@H]12)S(=O)(=O)c1ccc2c(c1)OCO2` (stereo partly drawn) [Compound 361], the results for the IC50 in assay [1] (setting [4]), in assay [2] (setting [5]) and in assay [3] (setting [6]) were 10 to 100 nM, 1 to 10 nM and 10 to 100 nM, respectively.
`CC(C)CN(C[C@@H](O)[C@H](Cc1ccc(OCc2cccc(C#N)c2)cc1)NC(=O)O[C@H]1CO[C@H]2OCC[C@H]21)S(=O)(=O)c1ccc2c(c1)OCO2` [Compound 367, (3R,3aS,6aR)-Hexahydrofuro[2,3-b]furan-3-yl-N (1S,2R)-1-[4-(3-cyanobenzyloxy)-benzyl]-3-i-butyl-[(3,4-methylenedioxyphenyl)sulfonyl]-amino-2-hydroxypropyl-carbamate]: the results for the IC50 in assay [1] (setting [7]), in assay [2] and in assay [3] (setting [8]) were less than 1 nM, less than 1 nM and 1 to 10 nM, respectively.
For the molecule `CC(C)CN(C[C@@H](O)[C@H](Cc1ccc(Oc2ccc(C#N)cn2)cc1)NC(=O)O[C@H]1CO[C@H]2OCC[C@H]21)S(=O)(=O)c1ccc2c(c1)OCO2` [Compound 335, (3R,3aS,6aR)-hexahydrofuro[2,3-b]furan-3-yl (1S,2R)-3-[(1,3-benzodioxol-5-ylsulfonyl)(isobutyl)amino]-1-{4-[(S-cyano-2-pyridinyl)oxy]benzyl}-2-hydroxypropylcarbamate], the half-maximal inhibitory concentration (IC50) in assay [1] (setting [4]), in assay [2] (setting [5]) and in assay [3] (setting [6]) was 1 to 10 nM each time.
Turning to `CC(C)CN(C[C@@H](O)[C@H](Cc1ccc(OCc2cccc([N+](=O)[O-])c2)cc1)NC(=O)O[C@H]1CO[C@H]2OCC[C@H]21)S(=O)(=O)c1ccc2c(c1)OCO2` [Compound 384, (3R,3aS,6aR)-hexahydrofuro[2,3-b]furan-3-yl (1S,2R)-3-[(1,3-benzodioxol-5-ylsulfonyl)(isobutyl)amino]-2-hydroxy-1-{4-[(3-nitrobenzyl)oxy]benzyl}propylcarbamate], the IC50 in assay [1] (setting [4]), in assay [2] (setting [5]) and in assay [3] (setting [6]) was 1 to 10 nM each time.
On to `CC(C)CN(C[C@@H](O)[C@H](Cc1ccc(OCCCN2CCCC2)cc1)NC(=O)O[C@H]1CO[C@H]2OCC[C@H]21)S(=O)(=O)c1ccc2c(c1)OCO2` [Compound 280, (3R,3aS,6aR)-hexahydrofuro[2,3-b]furan-3-yl (1S,2R)-3-[(1,3-benzodioxol-5-ylsulfonyl)(isobutyl)amino]-2-hydroxy-1-{4-[3-(1-pyrrolidinyl)propoxy]-3-benzyl}propylcarbamate], for which the half-maximal inhibitory concentration (IC50) in assay [1] (setting [7]) fell in the range of 1 to 10 nM; in assay [2] it was 10 to 100 nM; in assay [3] (setting [8]) it was 1 to 10 nM.
For `CC(=O)Oc1ccc(S(=O)(=O)N(CC(C)C)C[C@@H](O)[C@H](Cc2ccc(OCc3ccccn3)cc2)NC(=O)O[C@H]2COC3OCC[C@H]32)cc1C` (stereo partly drawn) [Compound 294], the half-inhibitory concentration (IC50) in assay [1] (setting [4]), in assay [2] (setting [5]) and in assay [3] (setting [6]) was 1 to 10 nM each time.
Consider `CC(C)CN(C[C@@H](O)[C@H](Cc1ccc(OCCN/C(=N/C#N)Oc2ccccc2)cc1)NC(=O)O[C@H]1CO[C@H]2OCC[C@H]21)S(=O)(=O)c1ccc2c(c1)OCO2` [Compound 262, (3R,3aS,6aR)-hexahydrofuro[2,3-b]furan-3-yl (1S,2R)-3-[(1,3-benzodioxol-5-ylsulfonyl)(isobutyl)amino]-1-[4-(2-{[(E and/or Z)-(cyanoimino)(phenoxy)methyl]amino}ethoxy)benzyl]-2-hydroxypropylcarbamate], for which the concentration for half-maximal inhibition (IC50) in assay [1] (Human immunodeficiency virus 1, MT4, read-out: EP13 mutant IC50) fell in the range of 1 to 10 nM; in assay [2] (setting [5]), 1 to 10 nM; in assay [3] (Human immunodeficiency virus 1, MT4, read-out: D545701-14 mutant - IC50), 1 to 10 nM.
Turning to `CC(C)CN(C[C@@H](O)[C@H](Cc1ccc(Oc2ccc([N+](=O)[O-])cc2[N+](=O)[O-])cc1)NC(=O)O[C@H]1CO[C@H]2OCC[C@H]21)S(=O)(=O)c1ccc2c(c1)OCO2` [Compound 336, (3R,3aS,6aR)-hexahydrofuro[2,3-b]furan-3-yl (1S,2R)-3-[(1,3-benzodioxol-5-ylsulfonyl)(isobutyl)amino]-1-[4-(2,4-dinitrophenoxy)benzyl]-2-hydroxypropylcarbamate], the IC50 in assay [1] (setting [4]), in assay [2] (setting [5]) and in assay [3] (setting [6]) was 1 to 10 nM throughout.
As for `CC(C)CN(C[C@@H](O)[C@H](Cc1ccc(OCCCNC(=O)c2ccoc2)cc1)NC(=O)O[C@H]1CO[C@H]2OCC[C@H]21)S(=O)(=O)c1ccc2c(c1)OCO2` [Compound 261, (3R,3aS,6aR)-hexahydrofuro[2,3-b]furan-3-yl (1S,2R)-3-[(1,3-benzodioxol-5-ylsulfonyl)(isobutyl)amino]-1-{4-[3-(3-furoylamino)propoxy]benzyl}-2-hydroxypropylcarbamate], the half-maximal inhibitory concentration (IC50) in assay [1] (setting [4]), in assay [2] (setting [5]) and in assay [3] (setting [6]) was 1 to 10 nM each time.
For `CC(C)CN(C[C@@H](O)[C@H](Cc1ccc(OCc2ccccc2)cc1)NC(=O)O[C@H]1CO[C@H]2OCC[C@H]21)S(=O)(=O)c1ccc2c(c1)OCCO2` [Compound 365], the 50% inhibitory concentration (IC50) in assay [1] (setting [4]), in assay [2] (setting [5]) and in assay [3] (setting [6]) was 1 to 10 nM each time.
For the molecule `CC(=O)Oc1ccc(S(=O)(=O)N(CC(C)C)C[C@@H](O)[C@H](Cc2ccc(OCc3csc(C)n3)cc2)NC(=O)O[C@H]2CO[C@H]3OCC[C@H]32)cc1C` [Compound 347, 4-{[((2R,3S)-3-({[(3R,3aS,6aR)-hexahydrofuro[2,3-b]furan-3-yloxy]carbonyl}amino)-2-hydroxy-4-{4-[(2-methyl-1,3-thiazol-4-yl)methoxy]phenyl}butyl)(isobutyl)amino]sulfonyl}-2-methylphenyl acetate], the IC50 in assay [1] (setting [4]), in assay [2] (setting [5]) and in assay [3] (setting [6]) was 1 to 10 nM each time.
For `CC(C)CN(C[C@@H](O)[C@H](Cc1ccc(OCc2ccc(C#N)cc2)cc1)NC(=O)O[C@H]1CO[C@H]2OCC[C@H]21)S(=O)(=O)c1ccc2c(c1)OCO2` [Compound 381, (3R,3aS,6aR)-hexahydrofuro[2,3-b]furan-3-yl (1S,2R)-3-[(1,3-benzodioxol-5-ylsulfonyl)(isobutyl)amino]-1-{4-[(4-cyanobenzyl)oxy]benzyl}-2-hydroxypropylcarbamate], the IC50 in assay [1] (setting [4]), in assay [2] (setting [5]) and in assay [3] (setting [6]) was 1 to 10 nM throughout.
Turning to `CC(C)CN(C[C@@H](O)[C@H](Cc1ccc(OCCCN2CCN(C)CC2)cc1)NC(=O)O[C@H]1CO[C@H]2OCC[C@H]21)S(=O)(=O)c1ccc2c(c1)OCO2` [Compound 282, (3R,3aS,6aR)-hexahydrofuro[2,3-b]furan-3-yl (1S,2R)-3-[(1,3-benzodioxol-5-ylsulfonyl)(isobutyl)amino]-2-hydroxy-1-{4-[3-(4-methyl-1-piperazinyl)propoxy]benzyl}propylcarbamate], the IC50 fell in the range of 1 to 10 nM in assay [1] (setting [4]), 10 to 100 nM in assay [2] (setting [5]) and 10 to 100 nM in assay [3] (setting [6]).
For `N#CCOc1ccc(C[C@H](NC(=O)O[C@H]2CO[C@H]3OCC[C@H]32)[C@H](O)CN(CC2CCCC2)S(=O)(=O)c2ccc3c(c2)OCO3)cc1` [Compound 397, (3R,3aS,6aR)-hexahydrofuro[2,3-b]furan-3-yl (1S,2R)-3-[(1,3-benzodioxol-5-ylsulfonyl)(cyclopentylmethyl)amino]-1-[4-(cyanomethoxy)benzyl]-2-hydroxypropylcarbamate], the IC50 in assay [1] (setting [4]) was in the range of 1 to 10 nM; in assay [2] (setting [5]) it was 10 to 100 nM; in assay [3] (setting [6]), 1 to 10 nM.
